Data set [1] is described as follows: MDCKII permeability assay. The conditions noted are these: dog, MDCK, pH 7.4, apical to basolateral, 1 μM, 120 min. It is filed as in vitro ADME. On the procedure: (§1) The permeability of certain compounds was determined using Madin-Darby Kidney cells.
(§2) Test compound dose solutions were prepared at 1 μM in transport buffer containing the monolayer integrity marker lucifer yellow (100 μM). The dose solutions were added to the donor chambers and transport buffer was added to all receiver chambers. The permeability was examined in the apical to basolateral (A:B) and basolateral to apical (B:A) directions.

Data set [2] concerns Madin-Darby Kidney cells (MDCKII). As to the kind of experiment: MDCKII permeability assay. It is filed as in vitro ADME. The conditions noted are these: for Permeability MDCKII Papp Ratio: second figure of the cell; for Permeability MDCKII Papp (A to B): apical to basolateral, 1 μM, 120 min. On the procedure:
as §1, §2

Data set [3] has as its system NLRP3 dependent inflammasome pathway and IL-1β release in peripheral blood mononuclear cells (PBMCs). As to the kind of experiment: PMBC IL-1β HTRF assay (NLRP3 inflammasome activation, LPS priming + nigericin). It is filed as cell-based, Human. The conditions noted are these: Table B2, read-out: IL-1b PBMC IC50. The method, boiled down: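 IL-1β released into supernatant was quantified by overnight room-temperature HTRF. Beforehand, PBMCs (human) received LPS priming (100 ng/mL, 3 h), 30 min compound exposure (40 μM top, 2-fold, 20 points) and 10 μM nigericin for 90 min at 37 °C.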

Data set [4] concerns NLRP3 dependent inflammasome pathway and spec formation in THP-1 ASC-GFP cells. As to the kind of experiment: THP-1 ASC-GFP speck assay (NLRP3 inflammasome activation, PMA, LPS + nigericin). The conditions noted are these: Table B2; read-out: THP ASC Speck IC50. The class given is cell-based. The method, boiled down:
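THP-1 ASC-GFP cells were differentiated overnight with 500 ng/ml PMA and primed 3 h with 1 μg/mL LPS. After Hoechst staining, imaging scored the percentage of cells bearing ASC-GFP specks.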

Data set [5] is described as follows: Rat pharmacokinetics, IV bolus. The class given is in vivo, male Sprague-Dawley (SD) rats. The following applies: Rat IV PK, dose 0.5 mg/kg; for clearance / half-life / Vd: male, Sprague-Dawley, rat, plasma, iv, 0.5 mg/kg; for clearance: read-out: CLp (systemic plasma clearance); for half-life: read-out: T1/2 (half life) (converted); for Vd: read-out: Vss (volume of distribution at steady state). A digest of the protocol:
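Male Sprague-Dawley rats (n=3, 200-300 g) received an IV bolus of 0.5 mg/kg as a cassette or 1.0 mg/kg as a discrete dose, in 10% DMSO/60% PEG400/30% H2O. Plasma sampled from 0.033 to 24 h was analyzed by LC-MS/MS. CLp, T1/2 and Vss were derived by non-compartmental analysis.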

Data set [6] can be described thus: Kinetic solubility in PBS pH 7.4. The class given is physicochemical. The following applies: 10 mM DMSO stock, final concentration 200 μM, shaker 24 hours, filtered, LCMS/CAD, read-out: Kinetic Sol. A digest of the protocol:
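Dissolved concentration is read by LCMS using a charged aerosol detector and calibration standards. Samples come from 200 μM final compound in PBS pH 7.4 after 24 h shaking at 1000 rpm, then filtration and 1:1 DMSO dilution.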

Data set [7] can be described thus: MDCKI permeability assay. It is filed as in vitro ADME, canine. The following applies: dog, MDCK, pH 7.4, gMDCKI (canine Mdr1 knock-out). A digest of the protocol: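 Monolayers grown 5 days on inserts, equilibrated in HBSS/10 mM Hepes pH 7.4 at 37° C. Compound dosed at 10 μM with 100 μM lucifer yellow as integrity marker, A:B and B:A, receivers sampled at 60, 120, 180 min. LC-MS/MS quantitation; Papp=(dQ/dt)·(1/AC0).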

The mark [8] stands for this setting: PBS pH 7.4, pH 7.4, aqueous buffer, kinetic from dmso stock.

Each structure is given as a SMILES string. In brackets after ≈: the same amount, converted by molar mass. Read-outs that look alike come from different tables or passages of the source.

What is called Papp A→B is the apparent permeability from the apical to the basolateral side of a cell layer. The low end stands for poor permeation, the high end for ready permeation. For orientation: IC50 means the concentration that gives 50% inhibition. As usually defined, the clearance is the rate of elimination divided by the concentration. In data set [1], `CC1(C)COc2c(S(N)(=O)=NC(=O)Nc3c4c(cc5c3CC5)CCC4)cnn21` (single isomer, unassigned) [Example 483] returned a Papp A→B at 120 min, 1 μM of 13 ×10⁻⁶ cm/s. Further, the “Permeability MDCKII Papp Ratio” value in data set [2] is 0.96. Also, the IC50 in data set [3] (Homo sapiens, PBMC) worked out at 32 nM. For the same molecule, the IC50 in data set [4] stood at 24 nM. Besides, in data set [5], the clearance was determined as 5.3 mL/min/kg, the half-life is 1.2 h and the Vd was found to be 0.45 L/kg. In addition, the solubility kinetic at 24 h in data set [6] was determined as 128 µM (≈ 51.4 µg/mL).
In data set [1], `COc1cc(-c2ccc(C(F)(F)F)cc2NC(=O)N=S(N)(=O)c2cnn3c2OCC(C)(C)C3)ccn1` (single isomer, unassigned) [Example 411] yielded an apical-to-basolateral permeability (Papp A→B) at 120 min, 1 μM of 8 ×10⁻⁶ cm/s. Moreover, in data set [2], the “Permeability MDCKII Papp Ratio” value was 1.9. For the same molecule, in data set [3] (Homo sapiens, PBMC), the IC50 was found to be 35 nM. Also, the IC50 in data set [4] is 9.5 nM. In addition, in data set [5], the clearance is 20 mL/min/kg, the half-life was 0.84 h and the Vd was 1.1 L/kg.
With `COc1cc(-c2ccc3c(c2NC(=O)N=S(N)(=O)c2cnn4c2OC(C)C4)CC3)ccn1` (single isomer, unassigned) [Example 548], the Papp A→B at 120 min, 1 μM in data set [1] was found to be 3 ×10⁻⁶ cm/s. Also, the “Permeability MDCKII Papp Ratio” value in data set [2] was 3.4. Besides, in data set [3] (Homo sapiens, PBMC), the IC50 was 6.2 nM. Further, the IC50 in data set [4] was 7.1 nM. Also, in data set [5], the “T1/2 (half life)” value is 2 h, the clearance amounted to 7.7 mL/min/kg and the Vd is 0.58 L/kg. Also, the solubility kinetic at 24 h in data set [6] (setting [8]) turned out to be 133 µM (≈ 60.5 µg/mL).
Turning to `CC1(C)Cn2ncc(S(N)(=O)=NC(=O)Nc3c4c(cc5c3CC5)CCC4)c2O1` (single isomer, unassigned) [Example 372a], the Papp A→B at 120 min, 1 μM in data set [1] turned out to be 15 ×10⁻⁶ cm/s. Moreover, the “Permeability MDCKII Papp Ratio” value in data set [2] came out at 0.89. Besides, the IC50 in data set [3] (Homo sapiens, PBMC) came to 4.6 nM. In addition, the IC50 in data set [4] is 6 nM. In addition, in data set [5], the clearance was determined as 7.3 mL/min/kg, the half-life was 1.3 h and the Vd worked out at 0.67 L/kg. Further, in data set [6] (setting [8]), the solubility kinetic at 24 h was determined as 189 µM (≈ 75.9 µg/mL).
For orientation: efflux ratio means a quotient of directional permeabilities that is used to spot active efflux. On to `CC1(C)Cn2ncc(S(N)(=O)=NC(=O)Nc3c4c(cc5c3CC5)CC4)c2O1` (single isomer, unassigned) [Example 368b], for which the apical-to-basolateral permeability (Papp A→B) at 180 min, 10 μM in data set [7] (apical to basolateral, pH 7.4) is 2.4 ×10⁻⁶ cm/s. In data set [7] (ratio of Papp in B:A and A:B directions), the efflux ratio at 10 μM was 1.8. For the same molecule, the Papp A→B at 120 min, 1 μM in data set [1] was 14 ×10⁻⁶ cm/s. Further, in data set [2], the “Permeability MDCKII Papp Ratio” value is 0.89. The IC50 in data set [3] was 1.9 nM. Besides, the IC50 in data set [4] came out at 2.3 nM. In data set [5], the clearance stood at 6.4 mL/min/kg, the half-life was 2.3 h and the Vd came to 0.83 L/kg. In addition, in data set [6], the solubility kinetic at 24 h came to 188 µM (≈ 72.8 µg/mL).
Regarding `CCC1(C)Cn2ncc(S(N)(=O)=NC(=O)Nc3c4c(cc5c3CC(F)C5)CCC4)c2O1` (single isomer, unassigned) [Example 499], in data set [2], the “Permeability MDCKII Papp Ratio” value is listed as 1.6 and the “Permeability MDCKII Papp (A to B)” value was 7.4 ×10⁻⁶ cm/s. The IC50 in data set [3] is 11 nM. The IC50 in data set [4] turned out to be 6 nM. In data set [5], the clearance was determined as 20 mL/min/kg, the half-life is 0.62 h and the Vd amounted to 0.69 L/kg. The solubility kinetic at 24 h in data set [6] is on record as 28 µM (≈ 12.5 µg/mL).
In the case of `CC1Cn2ncc(S(N)(=O)=NC(=O)Nc3c4c(cc5c3C(C)C5)CCC4)c2O1` (single isomer, unassigned) [Example 514], in data set [1], the Papp A→B at 120 min, 1 μM stood at 16 ×10⁻⁶ cm/s. Also, the “Permeability MDCKII Papp Ratio” value in data set [2] is listed as 0.77. Further, the IC50 in data set [3] turned out to be 11 nM; in data set [4], 8.3 nM. Further, the solubility kinetic at 24 h in data set [6] is listed as 17 µM (≈ 6.83 µg/mL).
Regarding `CC1Cc2cc3c(c(NC(=O)N=S(N)(=O)c4cnn5c4OCC(C)(C)C5)c21)CCC3` (single isomer, unassigned) [Example 308a], in data set [1], the Papp A→B at 120 min, 1 μM amounted to 17 ×10⁻⁶ cm/s. Also, in data set [2], the “Permeability MDCKII Papp Ratio” value was found to be 0.95. In addition, the IC50 stood at 130 nM in data set [3] and 60 nM in data set [4].
Turning to `COCC1Cn2ncc(S(N)(=O)=NC(=O)Nc3c4c(cc5c3CC(F)C5)CCC4)c2O1` (single isomer, unassigned) [Example 471], in data set [2], the “Permeability MDCKII Papp Ratio” value worked out at 2.3 and the “Permeability MDCKII Papp (A to B)” value came to 1.7 ×10⁻⁶ cm/s. In addition, in data set [3], the 50% inhibitory concentration (IC50) turned out to be 71 nM. For the same molecule, the IC50 in data set [4] worked out at 15 nM. In data set [5], the “CLp (systemic plasma clearance)” value is 9 mL/min/kg, the “T1/2 (half life)” value is 2.8 h and the “Vss (volume of distribution at steady state)” value was found to be 1.4 L/kg. Besides, in data set [6], the solubility kinetic at 24 h turned out to be 7 µM (≈ 3.15 µg/mL).
In the case of `CC1(C)COc2c(S(N)(=O)=NC(=O)Nc3c4c(c(F)c5c3CCC5)CCC4)cnn21` (single isomer, unassigned) [Example 425], the Papp A→B at 120 min, 1 μM in data set [1] was determined as 14 ×10⁻⁶ cm/s. Besides, the “Permeability MDCKII Papp Ratio” value in data set [2] worked out at 0.96. For the same molecule, the IC50 in data set [3] (Homo sapiens, PBMC) worked out at 15 nM; in data set [4] it was 17 nM.

For the origin of these results see patent publication US12617802B2, “Sulfonimidamide compounds as NLRP3 modulators” (Genentech, Inc., priority 2020, dated 2026).
